Patent publication US9090632B2, “Bicyclic oxazole and thiazole compounds and their use as allosteric modulators of mGluR5 receptors” (Vanderbilt University, priority 2010, dated 2015)

Tests used:
human mGluR5 = human mGluR5 (Homo sapiens, UniProt P41594); test: Cell-based functional Ca2+ mobilization assay, potentiation of glutamate EC20 response (H10H cell-line); conditions: H10H cell-line expressing recombinant human mGluR5; for Emax: in presence of glutamate EC20, normalized to maximal glutamate response; for EC50: potentiation in presence of glutamate EC20
Outline: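 H10H HEK293A cells expressing human mGluR5a were loaded with 2 μM fluo-4 AM in HBSS/20 mM HEPES/2.5 mM probenecid pH 7.4 and read on an FDSS 6000. Compound was added after a ~3 s baseline, followed 2.3 min later by an EC20 glutamate concentration; potentiation EC50 came from non-linear curve fitting.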

[1] = system: amphetamine-induced hyperlocomotion; test: Reversal of amphetamine-induced hyperlocomotion; format: in vivo, rat; conditions: male Sprague-Dawley rats; test compound po in 20% HP-β-CD; amphetamine sulfate 1 mg/kg sc
Description: Locomotor activity was assessed as mean distance traveled (cm) in standard 16×16 photocell testing chambers measuring 43.2 cm (Length)×43.2 cm (Width)×30.5 cm (Height) (Med Associates, St. Albans, Vt.). Animals were habituated to individual activity chambers for at least 30 min prior to drug administration. Following administration of drug or vehicle, activity was recorded for a 90 minute time period. Data was expressed as the mean (±SEM) distance traveled recorded in 5 min intervals over the test period. The data was analyzed using repeated measures analysis of variance (ANOVA) followed by post-hoc testing using Dunnett's test, when appropriate. A difference was considered significant when p≦0.05. […]
The animals were habituated in Smart Open Field locomotor activity test chambers (Hamilton-Kinder, San Diego, Calif.) with 16×16 photobeams to automatically record locomotor activity for 30 min and then dosed with vehicle or test compound. […] At 60 min, all rats were injected subcutaneously with 1 mg/kg amphetamine or vehicle and then monitored for an additional 60 min. Animals are monitored for a total of 120 minutes. Data are expressed as changes in ambulation defined as total number of beam breaks per 5 min periods.
The data for the dose-response studies were analyzed by a between-group analysis of variance. […]

Chain of human mGluR5 (P41594 21-1180 isoform P41594-2 limits assumed): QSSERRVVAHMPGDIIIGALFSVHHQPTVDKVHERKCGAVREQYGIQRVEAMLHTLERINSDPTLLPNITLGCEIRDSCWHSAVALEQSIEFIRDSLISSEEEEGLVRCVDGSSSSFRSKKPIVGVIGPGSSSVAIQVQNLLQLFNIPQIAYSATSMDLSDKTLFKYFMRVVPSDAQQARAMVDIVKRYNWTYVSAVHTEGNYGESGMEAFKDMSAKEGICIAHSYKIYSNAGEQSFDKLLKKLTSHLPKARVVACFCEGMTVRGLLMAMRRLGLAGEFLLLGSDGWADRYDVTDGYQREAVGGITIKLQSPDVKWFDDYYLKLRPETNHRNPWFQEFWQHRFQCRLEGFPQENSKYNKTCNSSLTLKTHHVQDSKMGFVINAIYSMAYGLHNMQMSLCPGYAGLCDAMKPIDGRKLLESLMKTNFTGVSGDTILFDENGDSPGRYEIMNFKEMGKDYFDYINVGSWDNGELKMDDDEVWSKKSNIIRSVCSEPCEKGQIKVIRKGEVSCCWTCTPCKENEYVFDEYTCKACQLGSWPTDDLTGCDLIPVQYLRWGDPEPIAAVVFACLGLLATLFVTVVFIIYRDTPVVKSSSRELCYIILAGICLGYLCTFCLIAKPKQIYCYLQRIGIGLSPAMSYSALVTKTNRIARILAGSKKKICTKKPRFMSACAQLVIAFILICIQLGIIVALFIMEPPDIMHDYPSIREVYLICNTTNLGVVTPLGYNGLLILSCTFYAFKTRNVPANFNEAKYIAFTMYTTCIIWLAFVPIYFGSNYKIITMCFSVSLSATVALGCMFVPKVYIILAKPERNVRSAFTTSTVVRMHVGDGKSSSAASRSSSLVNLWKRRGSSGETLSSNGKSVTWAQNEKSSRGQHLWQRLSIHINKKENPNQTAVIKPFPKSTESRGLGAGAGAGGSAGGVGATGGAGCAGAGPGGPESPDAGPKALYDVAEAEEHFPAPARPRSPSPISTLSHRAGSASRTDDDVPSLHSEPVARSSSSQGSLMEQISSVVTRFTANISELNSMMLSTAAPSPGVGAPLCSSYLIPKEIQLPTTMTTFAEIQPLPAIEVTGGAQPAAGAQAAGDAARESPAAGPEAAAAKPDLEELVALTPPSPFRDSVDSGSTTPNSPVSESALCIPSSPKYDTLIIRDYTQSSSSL

With `O=C(c1ccc(F)cc1)N1CCc2nc(COc3ccccc3)oc2C1` [Example B1, 5-[(4-fluorophenyl)carbonyl]-2-(phenoxymethyl)-4,5,6,7-tetrahydro[1,3]oxazolo[5,4-c]pyridine] the Emax (human mGluR5) was 84%, the EC50 (human mGluR5) was 0.38 µM and the “reversal of amphetamine-induced hyperlocomotion” value [1] was “Dose-dependent results for reversal of amphetamine-induced hyperlocomotion”.

Compound `O=C(c1ccc(F)cc1F)N1CCc2nc(COc3cccc(F)c3)oc2C1` [Example B78] has a melting point of 90.1 °C, an Emax (human mGluR5) of 71% and an EC50 (human mGluR5) of 0.331 µM.

`O=C(c1ccc(F)cn1)N1CCc2nc(COc3ccccc3)oc2C1` [Example B40] gave a melting point of 113.1 °C, an Emax (human mGluR5) of 67% and an EC50 (human mGluR5) of 2.95 µM.

In the case of `N#Cc1cc(C(=O)N2CCc3nc(COc4cccc(F)c4)oc3C2)ccc1F` [Example B97], the melting point is reported as 147.7 °C, the Emax (human mGluR5) is reported as 81% and the EC50 (human mGluR5) is reported as 1.05 µM.
